Results on 4 molecules are retold here after paper PMC12257394, “Design, Synthesis, and Biological Evaluation of Ferrocenyl–Cyclo-(Gly‑L‑Pro) Hybrids Sensitizing Multidrug-Resistant Cancer Cells to Anticancer Agents” (ACS Medicinal Chemistry Letters, 2025).

Data set [1] in a line: Neutral red uptake viability assay, SW620M. The class given is cell-based, human. The settings on record: human, SW620M cells (methotrexate-resistant), 72 h, n = 3, read-out: Cytotoxic activity IC50 (95% CI).
Data set [2] concerns the target T1, ABCG2 (Homo sapiens, UniProt Q9UNQ0).
T1 construct: ABCG2-overexpressing SW620C and SW620Mito; endogenous in cells; host or cells: SW620Mito (mitoxantrone-resistant variant of SW620, developed in the authors' laboratory by drug selection)
T1 sequence (Q9UNQ0 1-655): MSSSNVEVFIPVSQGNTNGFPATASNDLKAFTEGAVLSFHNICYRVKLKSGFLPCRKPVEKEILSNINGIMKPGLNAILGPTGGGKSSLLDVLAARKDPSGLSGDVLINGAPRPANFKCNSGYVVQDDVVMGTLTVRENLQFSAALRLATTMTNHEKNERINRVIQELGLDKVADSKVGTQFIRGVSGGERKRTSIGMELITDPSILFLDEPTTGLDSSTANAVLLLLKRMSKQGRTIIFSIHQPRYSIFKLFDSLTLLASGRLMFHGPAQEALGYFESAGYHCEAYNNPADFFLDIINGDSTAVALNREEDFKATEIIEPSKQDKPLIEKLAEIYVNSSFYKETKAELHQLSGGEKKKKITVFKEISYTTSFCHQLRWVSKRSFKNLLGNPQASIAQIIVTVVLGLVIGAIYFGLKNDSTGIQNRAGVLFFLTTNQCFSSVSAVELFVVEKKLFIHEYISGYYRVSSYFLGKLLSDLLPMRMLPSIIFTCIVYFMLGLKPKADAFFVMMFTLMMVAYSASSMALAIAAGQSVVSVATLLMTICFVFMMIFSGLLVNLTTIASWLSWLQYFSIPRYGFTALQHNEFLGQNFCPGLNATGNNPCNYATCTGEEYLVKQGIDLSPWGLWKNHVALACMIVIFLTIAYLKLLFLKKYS
Description: Pheophorbide A accumulation transport assay in SW620Mito cells. It is filed as cell-based. The settings on record: 10 µM compound. From the text:
To confirm the hypothesis of direct interaction between putative ABC protein inhibitors and transporter molecules, we conducted a series of experiments based on fluorescent probe transport as described previously. None of the compounds affected 2′,7′-bis(2-carboxyethyl)-5-(and-6)-carboxyfluorescein (BCECF) efflux out of SW620M cells, indicating the lack of interaction between the putative inhibitors and ABCC1 (Figure A). […] As anticipated, none of the newly synthesized compounds affected dye accumulation in drug-sensitive SW620 cells (data not shown). […]
Respective samples were supplemented with a specific fluorescent marker (100 nM calcein AM for ABCB1, 100 nM BCECF AM for ABCC1, and 1 µM pheophorbide A for A BCG2). […] For ABCB1 and ABCG2 assays (dye accumulation assays), intracellular fluorescence was measured by flow cytometry (FACSymphony A1, Becton, Dickinson and Company, New Jersey, USA) immediately after dye addition (time 0) and every 3–5 min up to approximately 30 min using a flow cytometer set at 488 nm excitation and 530/30 nm emission for the calcein/ABCB1 assay and 400 nm excitation and 655/8 nm emission for the pheophorbide A/ABCG2 assay. […] The intracellular BCECF concentration was then immediately measured at 488 nm excitation and 530/30 nm emission (time 0). […]

As for `O=C1N/C(=C/c2ccccc2)C(=O)N2CCC[C@@H]12` [(S,E)-4e], the IC50 at 72 h in data set [1] was > 100 µM. Take `O=C1N/C(=C\c2ccccc2-[c-]2cccc2)C(=O)N2CCC[C@@H]12.[Fe+2].c1cc[cH-]c1` [(S,Z)-4b]: in data set [2], the “increase of intracellular retention of pheophorbide A” value is recorded as ≤ 2.9 fold.

Turning to `O=C1N/C(=C\c2ccc(-[c-]3cccc3)cc2)C(=O)N2CCC[C@@H]12.[Fe+2].c1cc[cH-]c1` [(S,Z)-4d], the “increase of intracellular retention of pheophorbide A” value in data set [2] is given as ≤ 2.9 fold. For `O=C1N/C(=C\c2ccccc2)C(=O)N2CCC[C@@H]12` [(S,Z)-4e], the half-maximal inhibitory concentration (IC50) at 72 h in data set [1] was > 100 µM.
